Counter-ions that a name gives are not always drawn.
What was measured:
[1] = system: PTH secretion; assay: PTH secretion promoting action, oral administration to male SD rats, serum PTH by rat PTH (1-84) ELISA; assay type: in vivo; settings: for serum PTH concentration, 30 min later / serum PTH concentration, 120 min later / serum PTH concentration, 240 min later: male SD rats, oral, mean ± S.E.
Experimental: (§1) PTH Secretion Promoting Action
(§2) The test compound was orally administered to 6 to 9-week-old male SD rats (Charles River Japan, Inc.) fasted for 20 hr, using a solvent (5% ethanol, 0.5% aqueous methyl cellulose solution) at a dose of 30 mg/5 ml/kg and 100 mg/5 ml/kg. A solvent alone was orally administered to the control group at a dose of 5 ml/kg. The blood was drawn from the tail vein immediately before and 0.5, 1, 2, 4, 6 hr after the administration of the test compound, and sera were obtained. The serum PTH concentration was measured using rat PTH (1-84) ELISA kit (Nohon Medi-Physics). The results of the serum PTH concentration before and 30 min and 4 hr after the administration of the test compound are shown in Table 24, and the results of the serum PTH concentration before and 30 min and 2 hr after the administration of the test compound of the 30 mg/5 ml/kg administration group are shown in Table 25.
In FIG. 1, FIG. 2 and FIG. 3, the time-course changes of the serum PTH concentration at the dose (30 mg/kg) of Example 22, Example 23 and Example 24 are shown.

[2] = target: T1, human calcium receptor (Homo sapiens, UniProt P41180); assay: Evaluation of antagonistic action on calcium receptor using reporter gene (luciferase); assay type: cell-based
T1 construct: expressed in transfected cells; host or cells: cell strain derived from rat adrenal
T1 sequence (P41180 20-1078): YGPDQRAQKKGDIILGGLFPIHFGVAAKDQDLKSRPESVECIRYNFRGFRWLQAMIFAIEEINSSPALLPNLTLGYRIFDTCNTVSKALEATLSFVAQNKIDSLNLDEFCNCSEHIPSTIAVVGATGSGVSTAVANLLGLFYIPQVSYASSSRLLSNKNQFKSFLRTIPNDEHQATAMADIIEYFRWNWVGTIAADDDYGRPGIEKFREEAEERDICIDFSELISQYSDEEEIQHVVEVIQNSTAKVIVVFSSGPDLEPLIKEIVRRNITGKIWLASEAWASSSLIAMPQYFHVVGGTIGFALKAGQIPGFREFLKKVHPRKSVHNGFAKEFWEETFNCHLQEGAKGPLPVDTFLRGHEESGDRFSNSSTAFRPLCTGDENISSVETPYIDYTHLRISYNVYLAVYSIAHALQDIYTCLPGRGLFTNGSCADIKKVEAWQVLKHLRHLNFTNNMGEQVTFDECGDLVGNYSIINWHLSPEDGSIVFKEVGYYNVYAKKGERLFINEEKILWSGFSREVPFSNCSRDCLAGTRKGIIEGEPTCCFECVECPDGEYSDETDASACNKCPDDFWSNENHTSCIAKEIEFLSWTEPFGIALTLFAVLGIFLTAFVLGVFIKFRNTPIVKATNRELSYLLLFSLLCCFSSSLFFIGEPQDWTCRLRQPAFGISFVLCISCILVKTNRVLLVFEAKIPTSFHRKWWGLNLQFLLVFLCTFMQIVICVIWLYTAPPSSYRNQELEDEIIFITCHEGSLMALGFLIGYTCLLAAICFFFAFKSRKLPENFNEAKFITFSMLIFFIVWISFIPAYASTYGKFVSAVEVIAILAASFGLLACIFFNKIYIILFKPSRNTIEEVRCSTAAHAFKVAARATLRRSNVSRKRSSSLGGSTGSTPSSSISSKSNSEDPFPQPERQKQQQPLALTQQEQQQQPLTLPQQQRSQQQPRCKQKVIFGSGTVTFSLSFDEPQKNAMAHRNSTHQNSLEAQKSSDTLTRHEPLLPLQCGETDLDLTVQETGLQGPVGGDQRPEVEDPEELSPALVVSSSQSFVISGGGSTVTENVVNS
Experimental: Evaluation of Antagonistic Action on Calcium Receptor Using Reporter Gene
Luciferase cDNA and human calcium receptor cDNA were transfected into a cell strain derived from rat adrenal and the transformed cells were cultured overnight in a medium (F12 medium containing 0.5% dialyzed horse serum and 0.25% dialyzed bovine fetal serum). The next day, a dimethyl sulfoxide solution containing a test compound at 0.01–100 mM was diluted 100-fold with the medium and added to the test compound group at 10 μl per well. A medium containing 50 mM calcium chloride was added to the control group at 10 μl per well, such that the final calcium concentration of the medium became 5 mM. A medium alone was added to the blank group. After culture for 4 hr, luciferase substrate (PicaGene LT-2.0, TOYO INK) was added and the luciferase activity was measured with a photoluminometer. The inhibitory rate (%) was calculated from the obtained measured values according to the following formula.
Based on the results, the concentration (IC50) showing 50% inhibitory rate was determined.

[3] = system: PTH secretion; assay: PTH secretion promoting action, oral administration to female Fisher rats, serum PTH by rat PTH (1-84) ELISA; assay type: in vivo; settings: 30 mg/5 ml/kg, mean ± S.E.
Experimental: as §1
as §2, with “4” for “6”, “6-week-old female Fisher” for “9-week-old male SD”, “30” for “30 mg/5 ml/kg and 100”, “4” for “4, 6”, “26.” for “24, and the results of the serum PTH concentration before and 30 min and 2 hr after the administration of the test compound of the 30 mg/5 ml/kg administration group are shown in Table 25.”

[4] = system: PTH release; settings: OVX rat, rat PTH (1-34) 5 μg/kg; cited from earlier work
[5] = Table 25, 30 mg/5 ml/kg administration group
[6] = 100 mg/kg administration group (lower line)

Compound: CN(C)c1ccccc1C(OC[C@H](O)CNC(C)(C)Cc1ccc2ccccc2c1)C1CC1 (some centres unmarked) [Example 82]
- serum PTH concentration, 30 min later [1, 5]: 121.9 ± 9.0 pg/mL
- serum PTH concentration, 120 min later [1, 5]: 68.5 ± 11.4 pg/mL
- IC50 ([2]; Table 25, final calcium 5 mM): 51 nM

Compound: COc1ccccc1[C@H](OC[C@H](O)CNC(C)(C)Cc1ccc2ccccc2c1)C1CC1 [Example 24, (2R)-1-[1,1-Dimethyl-2-(naphthalen-2-yl)ethylamino]-3-[(1R)-(cyclopropyl)(2-methoxyphenyl)methoxy]propan-2-ol]
- IC50 ([2]; Table 24, final calcium 5 mM): 22 nM

Compound: COc1ccc(CC(C)(C)NC[C@@H](O)CO[C@@H](c2ccccc2C)C2CC2)cc1C [Example 127]
- serum PTH concentration, 30 min later [1, 5]: 265.3 ± 22.3 pg/mL
- serum PTH concentration, 120 min later [1, 5]: 75.2 ± 7.3 pg/mL
- IC50 ([2]; Table 25, final calcium 5 mM): 133 nM

Compound: Cc1ccccc1C(OC[C@H](O)CNC(C)(C)Cc1ccc2ccccc2c1)C1CC1 (stereo partly drawn) [Example 2, (2R)-1-[1,1-Dimethyl-2-(naphthalen-2-yl)ethylamino]-3-[(cyclopropyl) (2-methylphenyl)methoxy]propan-2-ol]
- serum PTH concentration, 30 min later [1, 6]: 154.8 ± 17.1 pg/mL
- serum PTH concentration, 240 min later [1, 6]: 85.8 ± 17.3 pg/mL
- IC50 ([2]; Table 24, final calcium 5 mM): 27 nM

Compound: Cc1ccccc1[C@H](OC[C@H](O)CNC(C)(C)Cc1ccc2ccccc2c1)C1CC1.O=C(O)/C=C/C(=O)O [Example 62]
- serum PTH concentration, 30 min later [3]: 620.6 ± 34.2 pg/mL
- serum PTH concentration, 240 min later [3]: 100.1 ± 11.7 pg/mL
- serum PTH concentration, before administration [3]: 82.9 ± 14.5 pg/mL
- IC50 ([2]; Table 24, final calcium 5 mM): 45 nM

Compound: Cc1ccsc1C(OC[C@H](O)CNC(C)(C)Cc1ccc2ccccc2c1)C1CC1 (some centres unmarked) [Example 100]
- serum PTH concentration, 30 min later [1, 5]: 130.1 ± 53.7 pg/mL
- serum PTH concentration, 120 min later [1, 5]: 49.3 ± 4.4 pg/mL
- IC50 ([2]; Table 25, final calcium 5 mM): 67 nM

Compound: Cc1ccccc1[C@H](OC[C@H](O)CNC(C)(C)Cc1ccc2ccccc2c1)C1CC1 [Example 23, (2R)-1-[1,1-Dimethyl-2-(naphthalen-2-yl)ethylamino]-3-[(1R)-(cyclopropyl)(2-methylphenyl)methoxy]propan-2-ol]
- IC50 ([2]; Table 24, final calcium 5 mM): 27 nM

Compound: COc1ccccc1[C@@H](C)OC[C@H](O)CNC(C)(C)Cc1ccc2ccccc2c1 [Example 22, (2R)-1-[1,1-Dimethyl-2-(naphthalen-2-yl)ethylamino]-3-[(1R)-1-(2-methoxyphenyl)ethoxy]propan-2-ol hydrochloride]
- IC50 ([2]; Table 24, final calcium 5 mM): 59 nM

Compound: Cc1ccc(CC(C)(C)NC[C@@H](O)CO[C@@H](c2ccccc2C)C2CC2)cc1C [Example 111]
- serum PTH concentration, 30 min later [1, 5]: 236.3 ± 60.8 pg/mL
- serum PTH concentration, 120 min later [1, 5]: 65.3 ± 6.4 pg/mL
- IC50 ([2]; Table 25, final calcium 5 mM): 24 nM

Compound: CC(C)(Cc1ccc2ccccc2c1)NC[C@@H](O)COC(c1cccc(C#N)c1)C1CC1 (some centres unmarked) [Example 105]
- serum PTH concentration, 30 min later [1, 5]: 115.4 ± 20.0 pg/mL
- serum PTH concentration, 120 min later [1, 5]: 74.3 ± 12.1 pg/mL
- IC50 ([2]; Table 25, final calcium 5 mM): 49 nM

Compound: CC(C)(Cc1ccc2ccccc2c1)NC[C@@H](O)CO[C@H](c1ccccc1CO)C1CC1 [Example 59, (2R)-1-[1,1-Dimethyl-2-(naphthalen-2-yl)ethylamino]-3-[(1S)-(cyclopropyl)[2-(hydroxymethyl)phenyl]methoxy]propan-2-ol Hemifumarate]
- serum PTH concentration, 30 min later [3]: 313.4 ± 103.3 pg/mL
- serum PTH concentration, 240 min later [3]: 62.2 ± 10.3 pg/mL
- serum PTH concentration, before administration [3]: 189.8 ± 90.9 pg/mL

Compound: COc1ccc(CC(C)(C)NC[C@@H](O)CO[C@@H](c2ccccc2C)C2CC2)cc1C [Example 95]
- serum PTH concentration, 30 min later [1, 5]: 199.1 ± 25.8 pg/mL
- serum PTH concentration, 120 min later [1, 5]: 80.4 ± 9.6 pg/mL
- IC50 ([2]; Table 25, final calcium 5 mM): 29 nM

Compound: COc1ccccc1C(OC[C@H](O)CNC(C)(C)Cc1ccc2ccccc2c1)C1CC1 (stereo partly drawn) [Example 1, (2R)-1-[1,1-Dimethyl-2-(naphthalen-2-yl)ethylamino]-3-[(cyclopropyl)(2-methoxyphenyl)methoxy]propan-2-ol]
- serum PTH concentration, 30 min later [1, 6]: 160.0 ± 13.8 pg/mL
- serum PTH concentration, 240 min later [1, 6]: 58.3 ± 7.3 pg/mL
- IC50 ([2]; Table 24, final calcium 5 mM): 41 nM

Compound: CC(C)(Cc1ccc2ccccc2c1)NC[C@@H](O)CO[C@@H](c1ccccc1CO)C1CC1 [Example 58, (2R)-1-[1,1-Dimethyl-2-(naphthalen-2-yl)ethylamino]-3-[(1R)-(cyclopropyl)[2-(hydroxymethyl)phenyl]methoxy]propan-2-ol Hemifumarate]
- serum PTH concentration, 30 min later [3]: 644.4 ± 65.2 pg/mL
- serum PTH concentration, 240 min later [3]: 394.1 ± 100.9 pg/mL
- serum PTH concentration, before administration [3]: 179.2 ± 45.6 pg/mL

Compound: rat PTH (1-34): rat parathyroid hormone fragment (1-34) administered to OVX rat (AVSEIQLMHNLGKHLASVERMQWLRKKLQDVHNF; Parathyroid hormone; UniProt P04089 32-65, looked up, fragment)
- PTH concentration in blood, peak in 30 min [4]: about 175 pg/ml
- time to restore original PTH level in blood [4]: 2 h

Compound: COc1ccccc1C(C)OC[C@H](O)CNC(C)(C)Cc1ccc2ccccc2c1 (stereo partly drawn) [Example 5, (2R)-1-[1,1-Dimethyl-2-(naphthalen-2-yl)ethylamino]-3-[1-(2-methoxyphenyl)ethoxy]propan-2-ol hydrochloride]
- IC50 ([2]; Table 24, final calcium 5 mM): 70 nM

Compound: CC(C)(Cc1ccc2ccccc2c1)NC[C@@H](O)COCc1ccccc1 [Comparative Example 1, reference compound]
- serum PTH concentration, 30 min later [1, 6]: 139.0 ± 18.8 pg/mL
- serum PTH concentration, 240 min later [1, 6]: 78.9 ± 12.3 pg/mL
- blood PTH concentration at 30 min relative to that before administration ([1]; 100 mg/kg, 30 min after administration): 1.3 times
- IC50 ([2]; Table 24, final calcium 5 mM): 560 nM

Compound: CC(C)(Cc1ccc2ccccc2c1)NC[C@@H](O)COC(c1cccc(C(N)=O)c1)C1CC1 (some centres unmarked) [Example 80]
- serum PTH concentration, 30 min later [1, 5]: 156.6 ± 15.3 pg/mL
- serum PTH concentration, 120 min later [1, 5]: 76.1 ± 12.6 pg/mL
- IC50 ([2]; Table 25, final calcium 5 mM): 64 nM

— patent US7211685B2, “Calcium receptor antagonists” (Japan Tobacco Inc., priority 2000, dated 2007)
